Reference: patent US20150245611A1, “ACTIVE INGREDIENT FOR CONTROLLING TRUE SPIDER MITES” (BAYER CROPSCIENCE AG, priority 2014, published 2015)

How the values were obtained:
Type in all cases: in vivo
[1] = system: Polyphagotarsonemus latus; assay: Polyphagotarsonemus latus test; outdoor spray treatment (HEMTLA) on aubergine plants; conditions: S. melongena, 100 g of ai/ha, Dat 16
Experimental: (§1) To produce an appropriate active ingredient formulation, 1 part by weight of active ingredient is mixed with the stated amounts of water to the desired concentration. Added to the spray liquor is 0.1% a.i. Crovol.
Three aubergine plants (Solanum melongena) infested by all stages of the broad mite (Polyphagotarsonemus latus) are sprayed with an active ingredient formulation of each desired concentration. A spray application with a water application rate of 500 l/Ha is conducted in each case.
(§2) After the desired time, the remaining mites per leaf are counted and calculated as the efficacy by the Abbott formula: […]

[2] = system: Polyphagotarsonemus latus; assay: Polyphagotarsonemus latus test; outdoor spray treatment (HEMTLA) on bell pepper plants; conditions: Capsicum annuum, 100 g of ai/ha
Experimental: as §1
Three bell pepper plants (Capsicum annuum) infested by all stages of the broad mite (Polyphagotarsonemus latus) are sprayed with an active ingredient formulation of each desired concentration. A spray application with a water application rate of 500 l/Ha is conducted in each case.
as §2

[3] = system: Polyphagotarsonemus latus; assay: Polyphagotarsonemus latus test; outdoor spray treatment (HEMTLA) on bean plants; conditions: Ph. vulgaris, three sprays at 7-day intervals
Experimental: as §1
Three bean plants (Phaseolus vulgaris) infested by all stages of the broad mite (Polyphagotarsonemus latus) are sprayed with an active ingredient formulation of each desired concentration. Each plant is treated three times at 7-day intervals with a spray application with a water application rate of 200 l/Ha. The juncture of treatment of the plants with the first spray application X corresponds to the start point of the evaluation (Dat=0) (Dat=days after treatment). The further treatments were effected after 7 days (spray application Y), the third treatment after 14 days (spray application Z).
as §2

[4] = system: Polyphagotarsonemus latus; assay: Polyphagotarsonemus latus test; outdoor spray treatment (HEMTLA) on chilli plants; conditions: C. frutescens
Experimental: as §1
Three chilli plants (Capsicum frutescens) infested by all stages of the broad mite (Polyphagotarsonemus latus) are sprayed with an active ingredient formulation of each desired concentration. A spray application with a water application rate of 458 l/Ha is conducted in each case.
as §2

Tetranychus urticae [5] = assay: Tetranychus urticae test; outdoor spray treatment (TETRUR) on cotton plants; conditions: G. hirsutum
Experimental: as §1
Three cotton plants (Gossypium hirsutum) infested by all stages of the red spider mite (Tetranychus urticae) are sprayed with an active ingredient formulation of each desired concentration. One spray application is conducted in each case.
After the desired time, the remaining mites per leaf are counted and calculated as the efficacy by the Abbott formula:
[formula] • B=treated plots • K=untreated control plots

Tetranychus urticae [6] = assay: Tetranychus urticae test; outdoor spray treatment (TETRUR) on aubergine plants; conditions: S. melongena
Experimental: as §1
Three aubergine plants (Solanum melongena) infested by all stages of the red spider mite (Tetranychus urticae) are sprayed with an active ingredient formulation of each desired concentration. One spray application is conducted in each case.
as §2

[7] = 75 g of ai/ha (+Crovol 0.1%), Dat 7
[8] = 100 g of ai/ha (+Crovol 0.1%), Dat 21
[9] = 100 g of ai/ha (+Crovol 0.1%), Dat 7
[10] = 100 g of ai/ha (+Crovol 0.1%), Dat 14

## CC(C)(C)c1ccc(CCOc2ncnc3ccccc23)cc1 [Fenazaquin, reference compound]
[1]
  Efficacy (% Abbott): 97.9 % Abbott
[2]; Dat 3
  Efficacy (% Abbott): 92.3 % Abbott
[2]; Dat 7
  Efficacy (% Abbott): 96 % Abbott
[2]; Dat 15
  Efficacy (% Abbott): 77.4 % Abbott
[2]; Dat 21
  Efficacy (% Abbott): 33.5 % Abbott

## Cc1nn(C)c(/C(OC(=O)C(C)(C)C)=C(\C#N)c2ccc(C(C)(C)C)cc2)c1C [Cyenopyrafen, reference compound]
[3]; 150 g of ai/ha, Dat 3
  Efficacy (% Abbott): 83.7 % Abbott
[3]; 150 g of ai/ha, Dat 7 (Y)
  Efficacy (% Abbott): 63.8 % Abbott
[3]; 150 g of ai/ha, Dat 14 (Z)
  Efficacy (% Abbott): 48.5 % Abbott
[3]; 150 g of ai/ha, Dat 21
  Efficacy (% Abbott): 58.1 % Abbott
[3]; 150 g of ai/ha, Dat 28
  Efficacy (% Abbott): 0 % Abbott
[4]; 150 g of ai/ha, Dat 7
  Efficacy (% Abbott): 28 % Abbott
[4]; 150 g of ai/ha, Dat 14
  Efficacy (% Abbott): 45 % Abbott
[4]; 150 g of ai/ha, Dat 21
  Efficacy (% Abbott): 0 % Abbott
Tetranychus urticae [5]; 150 g of ai/ha, Dat 4
  Efficacy (% Abbott): 98 % Abbott
Tetranychus urticae [5]; 150 g of ai/ha, Dat 6
  Efficacy (% Abbott): 99 % Abbott

## Cn1nc(C(F)(F)C(F)(F)F)c(C(F)(F)F)c1C(=O)Nc1ccc(Cl)c(C(=O)NCc2ccccc2)c1 [Compound (I)]
[3]; 75 g of ai/ha (+Crovol 0.1%), Dat 3
  Efficacy (% Abbott): 72 % Abbott
[3]; [7]
  Efficacy (% Abbott): 80.7 % Abbott
[3]; 75 g of ai/ha (+Crovol 0.1%), Dat 14 (Y)
  Efficacy (% Abbott): 81.2 % Abbott
[3]; 75 g of ai/ha (+Crovol 0.1%), Dat 21 (Z)
  Efficacy (% Abbott): 79.2 % Abbott
[3]; 75 g of ai/ha (+Crovol 0.1%), Dat 28
  Efficacy (% Abbott): 49.7 % Abbott
[3]; 100 g of ai/ha (+Crovol 0.1%), Dat 3
  Efficacy (% Abbott): 81.4 % Abbott
[3]; 100 g of ai/ha (+Crovol 0.1%), Dat 7 (Y)
  Efficacy (% Abbott): 91.5 % Abbott
[3]; 100 g of ai/ha (+Crovol 0.1%), Dat 14 (Z)
  Efficacy (% Abbott): 90 % Abbott
[3]; [8]
  Efficacy (% Abbott): 91.9 % Abbott
[3]; 100 g of ai/ha (+Crovol 0.1%), Dat 28
  Efficacy (% Abbott): 52.7 % Abbott
[4]; [7]
  Efficacy (% Abbott): 63 % Abbott
[4]; 75 g of ai/ha (+Crovol 0.1%), Dat 14
  Efficacy (% Abbott): 67 % Abbott
[4]; 75 g of ai/ha (+Crovol 0.1%), Dat 21
  Efficacy (% Abbott): 50 % Abbott
[4]; [9]
  Efficacy (% Abbott): 75 % Abbott
[4]; [10]
  Efficacy (% Abbott): 75 % Abbott
[4]; [8]
  Efficacy (% Abbott): 83 % Abbott
Tetranychus urticae [5]; 100 g of ai/ha (+Crovol 0.1%), Dat 4
  Efficacy (% Abbott): 100 % Abbott
Tetranychus urticae [5]; 100 g of ai/ha (+Crovol 0.1%), Dat 6
  Efficacy (% Abbott): 100 % Abbott
[1]
  Efficacy (% Abbott): 100 % Abbott
[2]; Dat 3
  Efficacy (% Abbott): 100 % Abbott
[2]; Dat 7
  Efficacy (% Abbott): 99.8 % Abbott
[2]; Dat 15
  Efficacy (% Abbott): 95.9 % Abbott
[2]; Dat 21
  Efficacy (% Abbott): 85.5 % Abbott
Tetranychus urticae [6]; 100 g of ai/ha (+Crovol 0.1%), Dat 5
  Efficacy (% Abbott): 99 % Abbott
Tetranychus urticae [6]; [9]
  Efficacy (% Abbott): 100 % Abbott
Tetranychus urticae [6]; [10]
  Efficacy (% Abbott): 100 % Abbott
Tetranychus urticae [6]; [8]
  Efficacy (% Abbott): 99 % Abbott
Tetranychus urticae [6]; 100 g of ai/ha (+Crovol 0.1%), Dat 29
  Efficacy (% Abbott): 99 % Abbott

## CCC(C)(C)C(=O)OC1=C(c2ccc(Cl)cc2Cl)C(=O)OC12CCCCC2 [Spirodiclofen, reference compound]
Tetranychus urticae [6]; 48 g of ai/ha, Dat 5
  Efficacy (% Abbott): 63 % Abbott
Tetranychus urticae [6]; 48 g of ai/ha, Dat 7
  Efficacy (% Abbott): 89 % Abbott
Tetranychus urticae [6]; 48 g of ai/ha, Dat 14
  Efficacy (% Abbott): 97.5 % Abbott
Tetranychus urticae [6]; 48 g of ai/ha, Dat 21
  Efficacy (% Abbott): 95 % Abbott
Tetranychus urticae [6]; 48 g of ai/ha, Dat 29
  Efficacy (% Abbott): 80 % Abbott
